In PMC10011747, “Targeting androgen receptor and the variants by an orally bioavailable Proteolysis Targeting Chimeras compound in castration resistant prostate cancer” (eBioMedicine, 2023):
Like-named read-outs stand apart in the source and are kept apart here.

Experiments:
AR NTD (221–320) = biological target: T1, AR NTD (221–320) (Homo sapiens, UniProt P10275); assay: Affinity selection mass spectrometer (ASMS) binding assay; details: 100 nM compound with 100 nM GST-AR-NTD, 1 h 37 °C; percentage of input compound recovered
T1 construct: GST tagged AR-NTD protein (221–320) (Abcam ab157902); purchased Abcam ab157902; host or cells: wheat germ (datasheet)
T1 sequence (P10275 221-320): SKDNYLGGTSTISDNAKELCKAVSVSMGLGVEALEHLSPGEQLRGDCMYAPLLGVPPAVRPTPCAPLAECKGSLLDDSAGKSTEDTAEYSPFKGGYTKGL
Protocol: Affinity selection mass spectrometer (ASMS)[40] binding assay was employed for the screen and relative binding affinity assessment of AR NTD binding compounds. Briefly, GST tagged AR-NTD protein (221–320) (Abcam ab157902) at final concentration of 100 nM was incubated with 100 nM of individual candidate compounds in PBS for 1 h at 37 °C. The protein-compound mixture was filtered through 10K MWCO pore sized Nanosep centrifugal column (PALL Life science) with thorough wash steps to separate protein-bound and unbound compounds. The protein-bound compounds were subsequently extracted and analyzed by ABSCIEX 4000 QTRAP LC-ESI MS/MS (AB Sciex, Framingham, MA) coupled to an Agilent 1200 HPLC system. A Waters S XBridge RP18, 3.5 μm, 4.6 × 20 mm column was used as the stationary phase (Waters Corporation, Milford, MA, USA). Gradient elution was carried out using water with 0.1% formic acid (solvent A) and acetonitrile with 0.1% formic acid (solvent B) as a mobile phase. Positive ion polarity scanning was used in electrospray (ESI) mass-triggered fraction collection to monitor the target mass. Quantification of protein-bound compounds was determined against calibration curves established with drug standards. For relative binding affinity assessment, same procedure and condition was carried out for each compound without target protein incubated in the reaction as background controls. Relative binding affinity was calculated as percentage of input compound quantity after background value subtraction.

LNCaP cells = assay: alamarBlue cell viability, LNCaP; assay type: cell-based; details: Homo sapiens, 168 h, 7 days treatment, normal hormone condition
Protocol: (§1) Cells were seeded in triplicate in 96-well plates 1 day prior to drug treatment for all assays. For viability test and IC50 assessment, the alamarBlue™ Cell Viability Reagent (Thermo Fisher Scientific) was added to cells 7 days after PROTAC treatment, followed by fluorescence detection as the manufacturer instructed. The IC50 was calculated by dose-inhibition regression. For proliferation monitoring, 2, 4, 6 and 8 days after PROTAC treatment (day 0), viable cells were detected by MTT Cell Proliferation Kit I (Sigma–Aldrich) according to the manufacturer's instructions. Cellular caspase activity was measured by Caspase-Glo 3/7 Assay System (Promega) 1 or 2 days after the drug treatment.

CWR22Rv1 cells = assay: alamarBlue cell viability, CWR22Rv1; assay type: cell-based; details: Homo sapiens, CWR22Rv1, 168 h; 7 days treatment, normal hormone condition
Protocol: as §1

VCaP cells = assay: alamarBlue cell viability, VCaP; assay type: cell-based; details: Homo sapiens, 168 h, 7 days treatment, normal hormone condition
Protocol: as §1

[1] = test system: LNCaP, CWR22Rv1 and VCaP cells; assay: alamarBlue cell viability, all three cell lines; assay type: cell-based; details: Homo sapiens, 168 h; 7 days treatment; read-out: IC50 cell viability, range in all three cell lines
Protocol: as §1

[2] = Pharmacokinetic analysis in BALB/c mice; assay type: in vivo, mouse; details: for bioavailability: read-out: BA (bioavailability); for clearance: read-out: plasma clearance rate
Protocol: Six to eight-week-old male BALB/c (BALB/cAnNCrlBltw) mice weighing between 22 and 30 g were purchased from BioLASCO Taiwan Co., Ilan, Taiwan. In vivo PK analysis of the PROTAC compounds was performed with 2 mg/kg for intravenous injection (IV, n = 2), 10 mg/kg for intraperitoneal injection (IP, n = 3), and 10 or 30 mg/kg for oral (PO, n = 3) dosing route. Blood samples from the mice were collected using Microvette® CB 300 EDTA blood collection tubes by a lancet at 0.167 h (IV only), 0.5, 1, 2, 4, 7 and 24 h time points. The plasma was then subjected to LC-MS analysis to quantitate the drug concentration against calibration curves that were established with drug standards prepared in mice plasma.

[3] = male, BALB/c, mouse, plasma, IP, 10 mg/kg
[4] = male, BALB/c, mouse, plasma, PO, 30 mg/kg
[5] = male, BALB/c, mouse, plasma, intravenous, 2 mg/kg
[6] = male, BALB/c, mouse, plasma, ip, 10 mg/kg, 0-24 h
[7] = male, BALB/c, mouse, plasma, ip, 10 mg/kg, IP, 10 mg/kg, read-out: Cmax
[8] = male, BALB/c, mouse, plasma, PO, 10 mg/kg

SMILES	ASMS relative binding (%) (AR NTD (221–320))	IC50 (LNCaP cells) [µM]	IC50 (CWR22Rv1 cells) [µM]	IC50 (VCaP cells) [µM]	IC50 [1] [µM]	Tmax [2, 3] [h]	clearance [2, 5] [mL/min/kg]	AUC(0-t) [2, 6] [ng·h/mL]	Cmax [2, 7] [ng/mL]	also measured
Cc1ncsc1-c1ccc(CNC(=O)[C@@H]2C[C@H](O)CN2C(=O)[C@@H](NC(=O)COCCCCOc2ccc(C3CCN(C4=Nn5c(nnc5C(F)(F)F)CC4)CC3)cc2)C(C)(C)C)cc1 [ITRI-90, (2S,4S)-1-((S)-3,3-dimethyl-2-(2-(4-(4-(1-(3-(trifluoromethyl)-7,8-dihydro-[1,2,4]triazolo[4,3-b]pyridazin-6-yl)piperidin-4-yl)phenoxy)butoxy)acetamido)butanoyl)-4-hydroxy-N-(4-(4-methylthiazol-5-yl)benzyl)pyrrolidine-2-carboxamide]	15.9	6.59 ± 3.13	4.13 ± 1.93	5.45 ± 1.74	3 to 6	1.5 ± 0.7	6.62	25500 ± 13600	3940 ± 1140	Cmax ([2]; PO, 30 mg/kg): 7056.67 ± 2594.81 ng/mL; AUC/Dose ([2]; PO, 30 mg/kg, 0-24 h): 600.13 ± 263.33 h⋅kg⋅ng/mL/mg; Tmax [2, 4]: 1.67 ± 0.58 h; bioavailability [2, 4]: 23%; AUC(0-t) ([2]; male, BALB/c, mouse, plasma, po, 30 mg/kg, 0-24 h): 18000 ng·h/mL; Cmax ([2]; male, BALB/c, mouse, plasma, po, 30 mg/kg, PO, 30 mg/kg, read-out: Cmax): 7060 ng/mL
Cc1ncsc1-c1ccc(CNC(=O)[C@@H]2C[C@H](O)CN2C(=O)[C@@H](NC(=O)COCCCCCCOc2ccc(C3CCN(C4=Nn5c(nnc5C(F)(F)F)CC4)CC3)cc2)C(C)(C)C)cc1 [ITRI-125, (2S,4S)-1-((S)-3,3-dimethyl-2-(2-(6-(4-(1-(3-(trifluoromethyl)-7,8-dihydro-[1,2,4]triazolo[4,3-b]pyridazin-6-yl)piperidin-4-yl)phenoxy)hexyloxy)acetamido)butanoyl)-4-hydroxy-N-(4-(4-methylthiazol-5-yl)benzyl)pyrrolidine-2-carboxamide]	13.6	6.36 ± 2.1	6.92 ± 6.23	3.06 ± 0.936	3 to 6		5.68			AUC/Dose ([2]; intravenous, 2 mg/kg): 2839.9 ± 36.7 ng·h/mL
O=C1CCC(N2Cc3c(NC(=O)COCCCCOc4ccc(C5CCN(C6=Nn7c(nnc7C(F)(F)F)CC6)CC5)cc4)cccc3C2=O)C(=O)N1 (stereo not shown) [ITRI-126, N-(2-(2,6-dioxopiperidin-3-yl)-1-oxoisoindolin-4-yl)-2-(4-(4-(1-(3-(trifluoromethyl)-7,8-dihydro-[1,2,4]triazolo[4,3-b]pyridazin-6-yl)piperidin-4-yl)phenoxy)butoxy)acetamide]	20	0.464 ± 0.093	0.071 ± 0.017	0.448 ± 0.154	0.07 to 0.4	1.5 ± 0.5	24.7	2340 ± 263	706 ± 222	AUC/Dose ([2]; IP, 10 mg/kg, 0-24 h): 234.2 ± 26.3 h⋅kg⋅ng/mL/mg; AUC/Dose ([2]; PO, 10 mg/kg, 0-24 h): 20.4 ± 8.6 h⋅kg⋅ng/mL/mg; Tmax [2, 8]: 0.7 ± 0.2 h; bioavailability [2, 8]: 4.6 ± 1.9%; AUC(0-t) ([2]; male, BALB/c, mouse, plasma, po, 10 mg/kg, 0-24 h): 204 ± 85.9 ng·h/mL; Cmax ([2]; male, BALB/c, mouse, plasma, po, 10 mg/kg, PO, 10 mg/kg, read-out: Cmax): 95.7 ± 47.1 ng/mL
